Results as given in PubChem BioAssay AID652241 (Broad Institute, 2013).
Results filed as inconclusive are left out. The source made the active and inactive calls.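 How the source made its calls: active means fitted curve reaches activity 50 in the expected rising direction at or below the top valid tested dose; inconclusive means no clear call, values can overlap the other calls; inactive means activity in the wrong direction, and the rest.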

biological target: Virion infectivity factor (Human immunodeficiency virus type 1 group M subtype B (isolate BH10)) + Virion infectivity factor (Human immunodeficiency virus type 1 group M subtype B (isolate BRU/LAI)) + Virion infectivity factor (Human immunodeficiency virus type 1 group M subtype B (isolate PCV12)) + Virion infectivity factor (Human immunodeficiency virus type 1 group M subtype B (isolate HXB2)) (UniProt P69720+P69721+P69722+P69723); test: dose-dependent disruption of HIV Vif self-association – imaging, HEK293T, cherry-picks, dose response (AID 652241); settings: HEK293T Vif multimerization imaging, 24 h;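 further: imaged cell signal that rises when Vif self-association is disrupted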

SMILES	AC50
CCN1C(=O)c2cccc3c(S(=O)(=O)Nc4nc(C)cs4)ccc1c23	15.1 µM
C=CCNc1ncnc2c1ncn2C1OC(CO)C(O)C1O (centres undefined)	5.47 µM
Cc1ccc(NC(=O)/C=C/c2ccco2)nc1	8.31 µM
COc1cccc(-c2cc(NC=O)c3ncc(-c4cc(OC)c(OC)c(OC)c4)n3c2)c1	4.25 µM
COc1ccc(CC(=O)Nc2ccc(-c3noc(-c4cc(OC)c(OC)c(OC)c4)n3)cc2)cc1	13 µM
O=C(NCc1cccnc1)NC1(C(F)(F)F)Oc2ccc(Cl)cc2O1 (centres undefined)	9.05 µM
COc1ccc2nc(N3C(=O)C(O)=C(C(=O)c4ccco4)C3c3ccccc3OC)sc2c1 (centres undefined)	> 19.5 µM (inactive)
Cc1nnc2ccc(-c3ccc(NS(=O)(=O)c4ccc(Cl)s4)cc3)nn12	14.5 µM
Clc1ccc(-n2nnnc2Sc2ncnc3sccc23)cc1	> 6.8 µM (inactive)
CCOC(=O)c1[nH]c2c(c1C)C(=O)CC(c1ccco1)C2 (centres undefined)	5.79 µM
COc1ccc(-c2cc(-c3nc4ccccn4c3NCc3ccccc3)ccc2OC)cc1	3.66 µM
COc1ccc(S(=O)(=O)N2c3cc(Cl)ccc3Oc3nc4ccccc4nc32)cc1	3.14 µM
COc1ccc(-n2nc(C(=O)NCC(=O)Nc3cccc(Cl)c3)c3ccccc3c2=O)cc1OC	8.05 µM
COc1cccc(NC(=O)NC2(C(F)(F)F)Oc3ccccc3O2)c1	> 19.5 µM (inactive)
O=C(Nc1ccc(-c2nc3ccc(NC(=O)c4cccs4)cc3[nH]2)cc1)c1cccs1	3.89 µM
CCCSc1ccc2nc(NC(=O)OC)[nH]c2c1	15.4 µM
C=CCn1c(O)c(C2=c3ccccc3=NC2=O)s/c1=N/c1nccs1	> 19.5 µM (inactive)
COc1ccc(NC(=O)Cn2ncc(Cl)c(Cl)c2=O)cc1S(=O)(=O)N1CCOCC1	> 19.5 µM (inactive)
CC(=O)Nc1ccc(S(=O)(=O)N2c3ccccc3C(C)=CC2(C)C)cc1	> 19.5 µM (inactive)
COC(=O)c1ccc(NCc2cc(O)ccc2O)cc1	5.96 µM

same assay, conditions: HEK293T Vif multimerization imaging, 24 h; at 2.1 µM (top of the series)

SMILES	activity, higher = inhibition
COc1ccc(/C=C2\CN(Cc3ccccc3)C/C(=C\c3ccc(OC)c(O)c3)C2=O)cc1O	inactive

same assay, conditions: HEK293T Vif multimerization imaging, 24 h; at 6.8 µM (top of the series)

SMILES	activity, higher = inhibition
COc1ccc(OCCN2CCC(C(=O)NC(c3ccccn3)c3ccccc3OC)CC2)cc1 (centres undefined)	inactive
CCc1nnc(NC(=O)c2sc3nc4cc(C)ccc4cc3c2N)s1	inactive
N#Cc1cc2c(=O)n3ccccc3nc2n(-c2ccccc2Cl)c1=O	inactive
COc1cc2c3nnc(-c4ccc(F)cc4)c-3cn(Cc3ccc(F)cc3)c2cc1OC	inactive
O=C1Nc2ccccc2S/C1=C/Nc1cccc(Cl)c1	inactive
NC(c1csc(Nc2ccc(C(=O)c3ccccc3)cc2)n1)C1CCCCC1 (centres undefined)	inactive
COc1ccc(C(=O)c2sc3nc(C)cc(-c4cccs4)c3c2N)cc1OC	inactive

same assay, conditions: HEK293T Vif multimerization imaging, 24 h; at 19.5 µM (top of the series)

SMILES	activity, higher = inhibition
CC(OC(=O)c1c[nH]c2ccccc12)C(=O)N1CCCC1 (centres undefined)	inactive
Cc1cc(N2CCN(S(=O)(=O)c3ccc(Cl)c(Cl)c3)CC2)c2ccccc2n1	inactive
COc1ccc(CN(C(=O)Cn2nnc(-c3ccc(C)o3)n2)C(C(=O)NCC2CCCO2)c2ccco2)cc1 (centres undefined)	inactive
CC(C)(C)NC(=O)CN(Cc1ccc(F)cc1)C(=O)Cn1nnc(-c2ccc(F)cc2)n1	inactive
CC(O)CN(C)CC/C=C1/c2ccccc2CSc2ccccc21 (centres undefined)	inactive
CCN(CC)C(=O)c1ccc(C(=O)c2c(C)cc(C)cc2C)cc1	inactive
Cc1cccc(N2CCN(C(=O)c3cc4ccccc4oc3=O)CC2)c1C	inactive
CCOC(=O)c1nc(Nc2ccc(C(=O)OC)cc2)c2ccccc2n1	inactive
CCCOCCOC(=O)c1[nH]c2c(c1C)C(=O)CC(c1cc(OC)ccc1OC)C2 (centres undefined)	inactive
O=C(c1cc(-c2ccccc2O)on1)N1CCCCCC1	inactive
O=C(CCCOc1ccc(Br)cc1)NNC(=O)c1ccncc1	inactive
Cc1ccc(-c2cc(C(=O)NCc3ccccn3)c3ccccc3n2)cc1C	inactive
O=S(=O)(Nn1cnnc1)c1ccccc1	inactive
COc1cc(/C=C/C(=O)OCC(=O)N2CCCc3ccccc32)ccc1O	inactive
CCOc1nc(N2CCCCC2)nc(-n2cc(-c3ccccc3)nn2)n1	inactive
COc1ccc(C(=O)Nc2cc(OC)c(NC(=O)Nc3ccccc3)cc2OC)cc1	inactive
CCNC(=O)[C@H]1O[C@@H](n2cnc3c(N)nc(NCCc4ccc(CCC(=O)O)cc4)nc32)[C@H](O)[C@@H]1O	inactive
CN(Cc1ccccc1)C(=O)CCC1CCN(C(=O)c2ccco2)CC1	inactive
CCC(=O)Nc1ccc(-c2cc3ccccc3oc2=O)cc1	inactive

SMILES	activity, higher = inhibition
CC(=O)Nc1ccc(C2(c3ccc(NC(C)=O)cc3)NC(=O)c3ccccc32)cc1	inactive
COc1ccc(-c2coc3cc(O)ccc3c2=O)cc1	inactive
CCC1(CC)NC(=O)N(CC(=O)Nc2ccc(OCc3ccccc3)cc2)C1=O	inactive
Cc1ccc(-n2c(SCC(=O)Nc3ccc4c(c3)OCO4)nnc2-c2cccs2)cc1	inactive
CC(C)CC(NC(=O)C1CCCCC1)C(=O)N1CCC2(CC1)OCCO2 (centres undefined)	inactive
COc1ccc([C@H]2CC(=O)C=C(c3cc4ccccc4s3)C2)cc1	inactive
CC(NC(=O)CSc1nc2c(c(C(F)(F)F)n1)CCc1ccccc1-2)c1ccccc1 (centres undefined)	inactive
COC(=O)N1C(=O)[C@](c2ccc(Cl)cc2)(C(C)C)N1C(=O)OC	inactive
Cc1ccc(Nc2cc(=O)[nH]c(=O)[nH]2)cc1C	inactive
CCN(CCCNC(=O)C1CCC(=O)N1Cc1ccc(C)cc1)c1cccc(C)c1 (centres undefined)	inactive
CCn1c(/C=C/c2ccc(F)cc2)nc2ccccc2c1=O	inactive
CCOc1ncccc1C(=O)OCc1ccccc1	inactive
Cc1ccc(-c2nn3c(C)nnc3c3ccccc23)cc1S(=O)(=O)NCc1ccccc1	inactive
O=C(CCCCn1ccc(=O)[nH]c1=O)Nc1ccc(O)c(C(=O)O)c1	inactive
O=C(CSc1nnc(CNc2ccc(F)cc2)o1)c1ccccc1	inactive
CC1CN(S(=O)(=O)c2ccc(C(=O)NCCCn3ccnc3)cc2)CC(C)O1 (centres undefined)	inactive
COc1ccc2c(CC(=O)Nc3ccccc3OC)coc2c1	inactive
O=C(COC(=O)c1ccccc1Br)NC1CCCC1	inactive
COc1cc(NC(=O)NCc2ccco2)ccc1-c1ccc(NC(=O)NCc2ccco2)cc1OC	inactive

SMILES	activity, higher = inhibition
COc1ccc(-c2csc(-c3cccnc3)n2)cc1C	inactive
COc1ccc(-c2nc(-c3ccccn3)nc(N3CCN(C)CC3)c2C#N)cc1	inactive
CCOc1ccc(NC(=O)CN(C)C(=O)c2cc(S(=O)(=O)N3CCCCC3)ccc2Cl)cc1OCC	inactive
Cc1cc(-c2nnc(SCC(=O)c3ccc(Cl)cc3)o2)no1	inactive
O=C1/C(=C/c2ccc(N3CCCC3)cc2)NC(=S)N1C1CC1	inactive
CN1CCc2c(sc(NC(=O)c3cc(Cl)sc3Cl)c2C(N)=O)C1	inactive
Cc1nn(C)cc1CN(C)Cc1ccc(OCC(O)CN2CCCCC2)cc1 (centres undefined)	inactive
Cc1ccc(S(=O)(=O)c2nc(-c3ccccc3Cl)oc2N(C)C2CCN(C)CC2)cc1	inactive
CCC(C)C(=O)Nn1c(C2CC2)nc2cc(OC)c(OC)cc2c1=O (centres undefined)	inactive
COc1ccc(-c2cc(C(=O)Nc3ccc4c(c3)OCO4)no2)cc1	inactive
O=C(Nc1cccc(-c2cc3ccccc3oc2=O)c1)c1ccc(Br)o1	inactive
COc1ccc(C=C2CS(=O)(=O)CC(=Cc3ccc(OC)cc3)C2=O)cc1	inactive
COc1cc(CNCc2ccccc2)c(Br)cc1OC1CCCC1	inactive
COc1cc(OC)cc(C(=O)N[C@H](C(=O)Nc2ccc3c(c2)OCO3)C(C)C)c1	inactive
N#Cc1c(-c2ccccc2)cc(C2CC2)nc1SCC(=O)c1cccs1	inactive
Cc1cc(C(=O)Nc2c(F)c(F)c(F)c(F)c2F)n(-c2ccccc2)n1	inactive
Cc1cc(NS(=O)(=O)c2ccc(NC(=O)c3ccc(Cl)cc3Cl)cc2)no1	inactive
CCN1CCc2c(sc(N)c2C(N)=O)C1	inactive
